Data published in patent US11136296B2, “Substituted N-arylethyl-2-arylquinoline-4-carboxamides and use thereof” (Bayer Aktiengesellschaft, priority 2017, dated 2021).

Target: FP receptor (Homo sapiens (Human), UniProt P43088)
Experiment: In vitro test of inhibition of human FP receptor activity (PGF2α-induced calcium flux in FP-expressing CHEM1 cells)
Format: cell-based
Conditions: PGF2α-induced (2 nM) calcium flux in FP-expressing CHEM1 cells; some as mean values from multiple determinations
Text: Table 1 below lists the IC50 values from this assay for individual working examples of the invention (some as mean values from multiple independent individual determinations): […]

FP receptor, sequence (P43088 whole entry): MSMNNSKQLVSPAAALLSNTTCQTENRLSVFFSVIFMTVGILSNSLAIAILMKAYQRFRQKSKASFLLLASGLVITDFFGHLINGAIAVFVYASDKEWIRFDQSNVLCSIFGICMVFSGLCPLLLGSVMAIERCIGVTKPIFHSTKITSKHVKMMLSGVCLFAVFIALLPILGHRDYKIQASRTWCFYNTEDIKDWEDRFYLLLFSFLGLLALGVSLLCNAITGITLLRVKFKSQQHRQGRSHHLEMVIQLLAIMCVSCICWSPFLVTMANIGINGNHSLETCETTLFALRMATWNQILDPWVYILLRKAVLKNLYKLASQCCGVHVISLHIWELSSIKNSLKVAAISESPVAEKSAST

SMILES	IC50
Cc1ccc(C(CNC(=O)c2c(C)c(-c3ccccc3)nc3ccc(Br)cc23)CC(=O)O)cc1 (single isomer, unassigned; (+)) [Example 91, (+)-4-{[(6-Bromo-3-methyl-2-phenylquinolin-4-yl)carbonyl]amino}-3-(4-methylphenyl)butanoic Acid]	460 nM
Cc1c(-c2ccccc2)nc2ccc(Br)cc2c1C(=O)NCC(CC(=O)O)c1ccccc1OC(F)(F)F (single isomer, unassigned; (+)) [Example 101, (+)-4-{[(6-Bromo-3-methyl-2-phenylquinolin-4-yl)carbonyl]amino}-3-[2-(trifluoromethoxy)phenyl]butanoic Acid]	32 nM
Cc1c(-c2ccccc2)nc2ccc(Br)cc2c1C(=O)NCC(CC(=O)O)c1ccccn1 (single isomer, unassigned; (+)) [Example 104, (+)-4-{[(6-Bromo-3-methyl-2-phenylquinolin-4-yl)carbonyl]amino}-3-(pyridin-2-yl)butanoic Acid]	> 1000 nM
Cc1c(-c2ccccc2)nc2ccc(Br)cc2c1C(=O)NCC(CC(=O)O)c1ccccc1C(F)(F)F (single isomer, unassigned; (+)) [Example 106, (+)-4-{[(6-Bromo-3-methyl-2-phenylquinolin-4-yl)carbonyl]amino}-3-[2-(trifluoromethyl)phenyl]butanoic Acid]	280 nM
COc1ccc(F)cc1C(CNC(=O)c1c(C)c(-c2ccccc2)nc2ccc(Br)cc12)CC(=O)O (single isomer, unassigned; (+)) [Example 124, (+)-4-{[(6-Bromo-3-methyl-2-phenylquinolin-4-yl)carbonyl]amino}-3-(5-fluoro-2-methoxyphenyl)butanoic Acid]	5.3 nM
COc1cccc(F)c1C(CNC(=O)c1c(C)c(-c2ccccc2)nc2ccc(Br)cc12)CC(=O)O (single isomer, unassigned; (+)) [Example 127, (+)-4-{[(6-Bromo-3-methyl-2-phenylquinolin-4-yl)carbonyl]amino}-3-(2-fluoro-6-methoxyphenyl)butanoic Acid]	25 nM
CCOc1ccccc1C(CNC(=O)c1c(C)c(-c2ccccc2)nc2ccc(Br)cc12)CC(=O)O (single isomer, unassigned; (+)) [Example 131, (+)-4-{[(6-Bromo-3-methyl-2-phenylquinolin-4-yl)carbonyl]amino}-3-(2-ethoxyphenyl)butanoic Acid]	99 nM
COc1c(F)cc(F)cc1C(C)(CNC(=O)c1c(C)c(-c2ccccc2)nc2ccc(Br)cc12)CC(=O)O (single isomer, unassigned; (+)) [Example 136, (+)-4-{[(6-Bromo-3-methyl-2-phenylquinolin-4-yl)carbonyl]amino}-3-(3,5-difluoro-2-methoxyphenyl)-3-methylbutanoic Acid]	13 nM
COc1cc(F)ccc1C(C)(CNC(=O)c1c(C)c(-c2ccccc2)nc2ccc(Br)cc12)CC(=O)O (single isomer, unassigned; (+)) [Example 139, (+)-4-{[(6-Bromo-3-methyl-2-phenylquinolin-4-yl)carbonyl]amino}-3-(4-fluoro-2-methoxyphenyl)-3-methylbutanoic Acid]	28 nM
COc1ccccc1C(CCC(=O)O)CNC(=O)c1c(C)c(-c2ccccc2)nc2ccc(Br)cc12 (single isomer, unassigned; (+)) [Example 168, (+)-5-{[(6-Bromo-3-methyl-2-phenylquinolin-4-yl)carbonyl]amino}-4-(2-methoxyphenyl)pentanoic Acid]	3.6 nM
Cc1c(-c2ccccc2)nc2ccc(Br)cc2c1C(=O)NCC(CCC(=O)O)c1ccccc1OC(F)F (single isomer, unassigned; (+)) [Example 180, (+)-5-{[(6-Bromo-3-methyl-2-phenylquinolin-4-yl)carbonyl]amino}-4-[2-(difluoromethoxy)phenyl]pentanoic Acid]	8.2 nM
Cc1c(-c2ccccc2)nc2ccc(Br)cc2c1C(=O)NCC(CCC(=O)O)c1c(F)cccc1F (single isomer, unassigned; (+)) [Example 183, (+)-5-{[(6-Bromo-3-methyl-2-phenylquinolin-4-yl)carbonyl]amino}-4-(2,6-difluorophenyl)pentanoic Acid]	23 nM
Cc1c(-c2ccccc2)nc2ccc(Br)cc2c1C(=O)NCC(c1ccccc1Cl)N(C)CC(=O)O (single isomer, unassigned; (+)) [Example 189, (+)-N-[2-{[(6-Bromo-3-methyl-2-phenylquinolin-4-yl)carbonyl]amino}-1-(2-chlorophenyl)ethyl]-N-methylglycine]	62 nM

The remaining lines, values ahead:

IC50	SMILES
75 nM	COc1cccnc1C(CNC(=O)c1c(C)c(-c2ccccc2)nc2ccc(Br)cc12)CC(=O)O (single isomer, unassigned; (+)) [Example 110, (+)-4-{[(6-Bromo-3-methyl-2-phenylquinolin-4-yl)carbonyl]amino}-3-(3-methoxypyridin-2-yl)butanoic Acid]
31 nM	Cc1c(-c2ccccc2)nc2ccc(Br)cc2c1C(=O)NCC(C)(CC(=O)O)c1ccccc1F (single isomer, unassigned; (+)) [Example 115, (+)-4-{[(6-Bromo-3-methyl-2-phenylquinolin-4-yl)carbonyl]amino}-3-(2-fluorophenyl)-3-methylbutanoic Acid]
280 nM	Cc1c(-c2ccccc2)nc2ccc(Br)cc2c1C(=O)NCC(C)(CC(=O)O)c1ccccn1 (single isomer, unassigned; (+)) [Example 118, (+)-4-{[(6-Bromo-3-methyl-2-phenylquinolin-4-yl)carbonyl]amino}-3-methyl-3-(pyridin-2-yl)butanoic Acid]
10 nM	COc1ccccc1C(C)(CNC(=O)c1c(C)c(-c2ccccc2)nc2ccc(Br)cc12)CC(=O)O (single isomer, unassigned; (+)) [Example 121, (+)-4-{[(6-Bromo-3-methyl-2-phenylquinolin-4-yl)carbonyl]amino}-3-(2-methoxyphenyl)-3-methylbutanoic Acid]
47 nM	COc1ccc(F)cc1C(C)(CNC(=O)c1c(C)c(-c2ccccc2)nc2ccc(Br)cc12)CC(=O)O (single isomer, unassigned; (+)) [Example 133, (+)-4-{[(6-Bromo-3-methyl-2-phenylquinolin-4-yl)carbonyl]amino}-3-(5-fluoro-2-methoxyphenyl)-3-methylbutanoic Acid]
6.8 nM	COc1cccc(F)c1C(C)(CNC(=O)c1c(C)c(-c2ccccc2)nc2ccc(Br)cc12)CC(=O)O (single isomer, unassigned; (+)) [Example 143, (+)-4-{[(6-Bromo-3-methyl-2-phenylquinolin-4-yl)carbonyl]amino}-3-(2-fluoro-6-methoxyphenyl)-3-methylbutanoic Acid]
> 1000 nM	Cc1c(-c2ccccc2)nc2ccc(Br)cc2c1C(=O)NC(C)C(CC(=O)O)c1ccccc1Cl (single isomer, unassigned; (+)) [Example 147, (+)-4-{[(6-Bromo-3-methyl-2-phenylquinolin-4-yl)carbonyl]amino}-3-(2-chlorophenyl)pentanoic Acid]
960 nM	Cc1c(-c2ccccc2)nc2ccc(Br)cc2c1C(=O)NC(C)C(CC(=O)O)c1ccccc1Cl (single isomer, unassigned; (+)) [Example 150, (+)-4-{[(6-Bromo-3-methyl-2-phenylquinolin-4-yl)carbonyl]amino}-3-(2-chlorophenyl)pentanoic Acid]
8 nM	Cc1c(-c2ccccc2)nc2ccc(Br)cc2c1C(=O)NCC(C)(CCC(=O)O)c1ccccc1Cl (single isomer, unassigned; (+)) [Example 156, (+)-5-{[(6-Bromo-3-methyl-2-phenylquinolin-4-yl)carbonyl]amino}-4-(2-chlorophenyl)-4-methylpentanoic Acid]
24 nM	Cc1c(-c2ccccc2)nc2ccc(Br)cc2c1C(=O)NCC(CCC(=O)O)c1c(F)cccc1Cl (single isomer, unassigned; (+)) [Example 159, (+)-5-{[(6-Bromo-3-methyl-2-phenylquinolin-4-yl)carbonyl]amino}-4-(2-chloro-6-fluorophenyl)pentanoic Acid]
33 nM	Cc1ccccc1C(CCC(=O)O)CNC(=O)c1c(C)c(-c2ccccc2)nc2ccc(Br)cc12 (single isomer, unassigned; (+)) [Example 162, (+)-5-{[(6-Bromo-3-methyl-2-phenylquinolin-4-yl)carbonyl]amino}-4-(2-methylphenyl)pentanoic Acid]
6.6 nM	Cc1c(-c2ccccc2)nc2ccc(Br)cc2c1C(=O)NCC(CCC(=O)O)c1cc(F)ccc1Cl (single isomer, unassigned; (+)) [Example 165, (+)-5-{[(6-Bromo-3-methyl-2-phenylquinolin-4-yl)carbonyl]amino}-4-(2-chloro-5-fluorophenyl)pentanoic Acid]
11 nM	Cc1c(-c2ccccc2)nc2ccc(Br)cc2c1C(=O)NCC(C)(CCC(=O)O)c1cc(F)ccc1Cl (single isomer, unassigned; (+)) [Example 171, (+)-5-{[(6-Bromo-3-methyl-2-phenylquinolin-4-yl)carbonyl]amino}-4-(2-chloro-5-fluorophenyl)-4-methylpentanoic Acid]
19 nM	Cc1c(-c2ccccc2)nc2ccc(Br)cc2c1C(=O)NCC(CCC(=O)O)c1ccccc1F (single isomer, unassigned; (+)) [Example 177, (+)-5-{[(6-Bromo-3-methyl-2-phenylquinolin-4-yl)carbonyl]amino}-4-(2-fluorophenyl)pentanoic Acid]
17 nM	Cc1c(-c2ccccc2)nc2ccc(Br)cc2c1C(=O)NCC(CCC(=O)O)c1cccc(F)c1Cl (single isomer, unassigned; (+)) [Example 186, (+)-5-{[(6-Bromo-3-methyl-2-phenylquinolin-4-yl)carbonyl]amino}-4-(2-chloro-3-fluorophenyl)pentanoic Acid]
42 nM	Cc1c(-c2ccccc2)nc2ccc(Br)cc2c1C(=O)NCC(OCC(=O)O)c1ccccc1Cl (single isomer, unassigned; (+)) [Example 192, (+)-[2-{[(6-Bromo-3-methyl-2-phenylquinolin-4-yl)carbonyl]amino}-1-(2-chlorophenyl)ethoxy]acetic Acid]
